Data published in US6716819B2, “Use of xylitol to reduce ionic strength and activate endogenous antimicrobials for prevention and treatment of infections” (University of Iowa Research Foundation, priority 2000, dated 2004).

Columns and labels:
CF epithelia = assay: Liquid absorption by airway epithelia; format: cell-based, human; conditions: 60 μl saline/xylitol mixtures apical, 4 hours, increasing xylitol concentration
Protocol: (§1) FIG. 2. Effect of apical xylitol on rate of liquid absorption by non-CF and CF epithelia. Sixty μl of saline solution, xylitol solution, or indicated mixtures of the two were applied to the apical surface. Four hours later the solution was removed to measure rate of liquid absorption. A short incubation period was chosen to avoid secondary changes in the epithelium due to the large volume of apical liquid. Data are mean±SEM; n=15 from 3 different experiments. Some SEM bars are hidden by symbols.
(§2) Airway epithelial cells were isolated from tracheal and bronchial tissue. […] All epithelia were evaluated with scanning electron microscopy for the development of a ciliated apical surface.
(§3) Liquid absorption was measured using methods similar to those previously described (Smith, J. J., P. H. Karp, and M. J. Welsh. 1994. Defective fluid transport by cystic fibrosis airway epithelia. J. Clin. Invest. 93:1307-1311). […] After incubation for 4 hours, apical solutions were collected under mineral oil and their volume measured as previously described (Zabner, J., J. J. Smith, P. H. Karp, J. H. Widdicombe, and M. J. Welsh. 1998. Loss of CFTR chloride channels alters salt absorption by cystic fibrosis airway epithelia in vitro. Mol. Cell. 2:397-403; Smith, J. J., P. H. Karp, and M. J. Welsh. 1994. Defective fluid transport by cystic fibrosis airway epithelia. J. Clin. Invest. 93:1307-1311). […]

non-CF epithelia = assay: Liquid absorption by airway epithelia; format: cell-based, human; conditions: 60 μl saline/xylitol mixtures apical, 4 hours, increasing xylitol concentration
Protocol: as §1, §2, §3

E. coli = assay: Bacterial killing by nasal lavage fluid, luminescence assay; format: cell-based; conditions: increasing xylitol concentration (serial dilutions of 300 mM), 4 hours at 30° C.
Protocol: FIG. 4. Effect of modifying ionic strength and xylitol concentration of killing of E. coli by nasal lavage liquid. Nasal lavage liquid was diluted with increasing concentrations of NaCl (bottom X-axis) or xylitol (top X-axis). SEM are smaller than the symbol.
Nasal lavage fluid was collected from normal volunteers. A flexible catheter (18-gauge; Jelco, Tampa, Fla.) was inserted into each nostril and the area flushed four times with 4 ml of sterile water. Cells were removed by centrifugation and the fluid was filtered with a sequential 0.8/0.2 μm Supor Acrodisc PF (GelamnSciences, Ann Arbor, Mich.). To study the effect of xylitol on bacterial killing by endogenous antimicrobial factors, a luminescence assay was used in which E. coli express the genes from Photorhabdus luminescens (Travis, S. M., B. A. D. Conway, J. Zabner, J. J. Smith, N. N. Anderson, P. K. Singh, E. P. Greenberg, and M. J. Welsh. 1999. Activity of Abundant Antimicrobials of the Human Airway. Am. J. Respir. Cell. Mol. Biol. 20:872-879). As previously described, this assay reports bacterial viability. Briefly, bacteria were grown to exponential phase at 30° C., centrifuged, and resuspended in 20 mM potassium phosphate with 2% Lauria-Bertani medium. […] After incubation at 30° C. for 4 hours, luminescence was measured with a luminometer (MLX Luminometer; Dynex Technologies Inc.; Chantilly, Va.). […]

[1] = in chewing gum, lozenges, or syrup; cited from earlier work

Structure (SMILES): OC[C@@H](O)[C@H](O)[C@@H](O)CO [xylitol]
- rate of liquid absorption (CF epithelia): reduced the rate of liquid absorption
- rate of liquid absorption (non-CF epithelia): reduced the rate of liquid absorption
- killing of E. coli by nasal lavage fluid (E. coli): not affected
- decrease in incidence of acute otitis media [1]: 20-40%
